According to patent US8686113B2 (priority 2009, dated 2014):
≈ marks a conversion by molar mass, not a printed value. Non-standard residues stand in square brackets, D forms with d. Residues, ends and D or L forms follow the SMILES beside them. No end group written: not given here. Hyp = O=C(O)[C@@H]1C[C@@H](O)CN1; dOrn = NCCC[C@@H](N)C(=O)O; Orn = NCCC[C@H](N)C(=O)O

Experiments:
[1] = mouse, serum, Half-life in 25% mouse serum, 25% aqueous mouse serum, 37° C., 75 μg/mL peptide
M. luteus 10240 = experiment: Growth inhibition assay (microdilution MIC); assay type: cell-based, Micrococcus luteus
Method in brief: (§1)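 Broth microdilution in 1% TSB with twofold peptide series, final 128 μg/mL to 62.5 ng/mL, against 5×10^6 bacteria/mL stock suspension added 1:1. Incubated 20 h at 37 °C, growth read by absorbance at 595 nm; MIC is the lowest concentration with no growth, determined in triplicate.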

E. coli BL21 A1 = assay type: cell-based, Escherichia coli; conditions: BL21, 20 h
Method in brief: as §1

Row | MIC M. luteus 10240 (M. luteus 10240; 10240, 20 h) [µg/mL] | MIC E. coli BL21 A1 (E. coli BL21 A1) [µg/mL] | Molecule | half-life [1] [h] | MIC M. luteus 10240 (M. luteus 10240; 1% TSB, 20 h at 37° C.) [µg/mL]
1 | – | – | CC[C@H](C)[C@H](NC(=O)[C@H](CCCNC(=N)N)NC(=O)[C@H](CCCNC(=N)N)NC(=O)[C@@H]1CCCN1C(=O)[C@@H]1CCCN1C(=O)[C@H](CCCNC(=N)N)NC(=O)[C@@H]1CCCN1C(=O)[C@H](CCCNC(=N)N)NC(=O)[C@@H]1CCCN1C(=O)[C@H](CC(C)C)NC(=O)[C@H](Cc1ccc(O)cc1)NC(=O)[C@@H]1CCCN1C(=O)[C@@H]1CCCN1C(=O)[C@H](CCCCN)NC(=O)[C@H](CC(=O)O)NC(=O)[C@@H](N)C(C)C)C(=O)N[C@@H](Cc1ccc(O)cc1)C(=O)N[C@@H](CC(N)=O)C(=O)N[C@@H](CCCN)C(N)=O [SEQ ID NO. 50, VDKPPYLPRPRPPRRIYNO-NH2] (H-VDKPPYLPRPRPPRRIYN[Orn]-NH2) | 1.5 | –
2 | 128 (≈ 55.5 µM) | >256 | CC[C@H](C)[C@H](NC(=O)[C@H](Cc1ccc(O)cc1)NC(=O)[C@H](CC(N)=O)NC(=O)[C@@H](N)CCCN)C(=O)N1C[C@H](O)C[C@H]1C(=O)N[C@@H](CCCNC(=N)N)C(=O)N1CCC[C@H]1C(=O)N1CCC[C@H]1C(=O)N[C@@H](CCCNC(=N)N)C(=O)N1CCC[C@H]1C(=O)N[C@@H](CCCNC(=N)N)C(=O)N1CCC[C@H]1C(=O)N[C@@H](CC(C)C)C(=O)N[C@@H](Cc1ccc(O)cc1)C(=O)N1CCC[C@H]1C(=O)N1CCC[C@H]1C(=O)N[C@@H](CCCCN)C(=O)N[C@@H](CC(=O)O)C(=O)N[C@H](C(N)=O)C(C)C [compound 114] (H-[Orn]NYI[Hyp]RPPRPRPLYPPKDV-NH2) | – | –
3 | 16 (≈ 6.69 µM) | 64 (≈ 26.8 µM) | CC[C@@H](C)[C@@H](NC(=O)[C@@H](CCCNC(=N)N)NC(=O)[C@@H](CCCNC(=N)N)NC(=O)[C@H]1CCCN1C(=O)[C@H]1CCCN1C(=O)[C@@H](CCCNC(=N)N)NC(=O)[C@H]1CCCN1C(=O)[C@@H](CCCNC(=N)N)NC(=O)[C@H]1CCCN1C(=O)[C@@H](CC(C)C)NC(=O)[C@@H](Cc1ccc(O)cc1)NC(=O)[C@H]1CCCN1C(=O)[C@H]1CCCN1C(=O)[C@@H](CCCCN)NC(=O)[C@@H](CC(=O)O)NC(=O)[C@H](N)C(C)C)C(=O)N[C@H](Cc1ccc(O)cc1)C(=O)N[C@H](CC(N)=O)C(=O)N[C@H](CCCNC(=N)N)C(N)=O [compound 115] (H-[dV][dD][dK][dP][dP][dY][dL][dP][dR][dP][dR][dP][dP][dR][dR][dI][dY][dN][dR]-NH2) | – | –
4 | 32 (≈ 13.9 µM) | 64 (≈ 27.8 µM) | CC[C@@H](C)[C@@H](NC(=O)[C@@H](CCCN)NC(=O)[C@@H](CCCNC(=N)N)NC(=O)[C@H]1CCCN1C(=O)[C@H]1CCCN1C(=O)[C@@H](CCCNC(=N)N)NC(=O)[C@H]1CCCN1C(=O)[C@@H](CCCNC(=N)N)NC(=O)[C@H]1CCCN1C(=O)[C@@H](CC(C)C)NC(=O)[C@@H](Cc1ccc(O)cc1)NC(=O)[C@H]1CCCN1C(=O)[C@H]1CCCN1C(=O)[C@@H](CCCCN)NC(=O)[C@@H](CC(=O)O)NC(=O)[C@H](N)C(C)C)C(=O)N[C@H](Cc1ccc(O)cc1)C(=O)N[C@H](CC(N)=O)C(=O)N[C@H](CCCN)C(N)=O [compound 116] (H-[dV][dD][dK][dP][dP][dY][dL][dP][dR][dP][dR][dP][dP][dR][dOrn][dI][dY][dN][dOrn]-NH2) | – | –
5 | 32 (≈ 13.9 µM) | 256 (≈ 111 µM) | CC[C@@H](C)[C@@H](NC(=O)[C@@H](Cc1ccc(O)cc1)NC(=O)[C@@H](CC(N)=O)NC(=O)[C@H](N)CCCN)C(=O)N[C@H](CCCN)C(=O)N[C@H](CCCNC(=N)N)C(=O)N1CCC[C@@H]1C(=O)N1CCC[C@@H]1C(=O)N[C@H](CCCNC(=N)N)C(=O)N1CCC[C@@H]1C(=O)N[C@H](CCCNC(=N)N)C(=O)N1CCC[C@@H]1C(=O)N[C@H](CC(C)C)C(=O)N[C@H](Cc1ccc(O)cc1)C(=O)N1CCC[C@@H]1C(=O)N1CCC[C@@H]1C(=O)N[C@H](CCCCN)C(=O)N[C@H](CC(=O)O)C(=O)N[C@@H](C(N)=O)C(C)C [compound 118] (H-[dOrn][dN][dY][dI][dOrn][dR][dP][dP][dR][dP][dR][dP][dL][dY][dP][dP][dK][dD][dV]-NH2) | – | –
6 | 4 | 8 | H-ADKPPYLPRPRPPRRIYNR-NH2 [compound 29] | – | –
7 | 8 | 32 | H-DKPPYLPRPRPPRRIYNR-NH2 [compound 86] | – | –
8 | 4 | 16 | H-VAKPPYLPRPRPPRRIYNR-NH2 [compound 30] | – | –
9 | 32 | 64 | H-VDAPPYLPRPRPPRRIYNR-NH2 [compound 31] | – | –
10 | 8 | 8 | H-VDKAPYLPRPRPPRRIYNR-NH2 [compound 32] | – | –
11 | 8 | 8 | H-VDKPAYLPRPRPPRRIYNR-NH2 [compound 33] | – | –
12 | 16 | 128 | H-VDKPPALPRPRPPRRIYNR-NH2 [compound 34] | – | –
13 | 16 | 128 | H-VDKPPYAPRPRPPRRIYNR-NH2 [compound 35] | – | –
14 | 8 | 32 | H-VDKPPYIPRPRPPRRIYNR-NH2 [compound 77] | – | –
15 | 8 | 32 | H-VDKPPYLARPRPPRRIYNR-NH2 [compound 36] | – | –
16 | 32 | 32 | H-VDKPPYLPAPRPPRRIYNR-NH2 [compound 37] | – | –
17 | 8 | 32 | H-VDKPPYLPRARPPRRIYNR-NH2 [compound 38] | – | –
18 | 16 | 64 | H-VDKPPYLPRPAPPRRIYNR-NH2 [compound 39] | – | –
19 | 32 | 64 | H-VDKPPYLPRPFPPRRIYNR-OH [compound 13] | – | –
20 | 32 | 64 | H-VDKPPYLPRPHPPRRIYNNR-OH [compound 8] | – | –
21 | 16 | 64 | H-VDKPPYLPRPHPPRRIYNRN-OH [compound 9] | – | –
22 | 16 | 8 | H-VDKPPYLPRPKPPRRIYNR-NH2 [compound 7] | – | –
23 | 16 | 32 | H-VDKPPYLPRPKPPRRIYNRN-OH [compound 6] | – | –

Row | MIC M. luteus 10240 (M. luteus 10240; 10240, 20 h) [µg/mL] | MIC E. coli BL21 A1 (E. coli BL21 A1) [µg/mL] | Molecule | half-life [1] [h] | MIC M. luteus 10240 (M. luteus 10240; 1% TSB, 20 h at 37° C.) [µg/mL]
24 | 64 | 64 | H-VDKPPYLPRPNPPRRIYNR-OH [compound 11] | – | –
25 | 64 | 128 | H-VDKPPYLPRPPPPRRIYNNR-OH [compound 2] | – | –
26 | 64 | 64 | H-VDKPPYLPRPQPPRRIYNR-OH [compound 12] | – | –
27 | 8 | 16 | H-VDKPPYLPRPRAPRRIYNR-NH2 [compound 40] | – | –
28 | 8 | 16 | H-VDKPPYLPRPRPARRIYNR-NH2 [compound 41] | – | –
29 | 32 | 16 | H-VDKPPYLPRPRPPARIYNR-NH2 [compound 42] | – | –
30 | 16 | 32 | H-VDKPPYLPRPRPPRAIYNR-NH2 [compound 43] | – | –
31 | 32 | 8 | H-VDKPPYLPRPRPPRHIYNH-NH2 [compound 64] | – | –
32 | 8 | 128 | H-VDKPPYLPRPRPPRPIRV-OH [compound 48] | – | –
33 | 16 | 16 | H-VDKPPYLPRPRPPRRAYNR-NH2 [compound 44] | – | –
34 | 16 | 8 | H-VDKPPYLPRPRPPRRIANR-NH2 [compound 45] | – | –
35 | 8 | 8 | H-VDKPPYLPRPRPPRRIYAR-NH2 [compound 46] | – | –
36 | 64 | 32 | H-VDKPPYLPRPRPPRRIYN-NH2 [compound 27] | – | –
37 | 16 | 32 | H-VDKPPYLPRPRPPRRIYNA-NH2 [compound 47] | – | –
38 | 4 | 4 | H-VDKPPYLPRPRPPRRIYPQPRPPHPRL-NH2 [compound 49] | – | –
39 | 8 | 8 | H-VDKPPYLPRPRPPRRIYQR-NH2 [compound 79] | – | –
40 | 16 | 8 | H-VDKPPYLPRPRPPRRLYNR-NH2 [compound 78] | – | –
41 | 16 | 8 | H-VDKPPYLPRPRPRPRIYNR-NH2 [compound 59] | – | –
42 | 64 | 128 | H-VDKPPYLPRPTPPRRIYNNR-OH [compound 4] | – | –
43 | 16 | 128 | H-VDKPPYLPRPYPPRRIYNR-OH [compound 10] | – | –
44 | 8 | 16 | H-VDRPPYLPRPRPPRRIYNR-NH2 [compound 76] | – | –
45 | 8 | 16 | H-VEKPPYLPRPRPPRRIYNR-NH2 [compound 75] | – | –

Row | Molecule | MIC M. luteus 10240 (M. luteus 10240; 10240, 20 h) [µg/mL] | MIC E. coli BL21 A1 (E. coli BL21 A1) [µg/mL] | half-life [1] [h] | MIC M. luteus 10240 (M. luteus 10240; 1% TSB, 20 h at 37° C.) [µg/mL]
46 | VDKGSYLPRPTPPRPIYNRN-NH2 [compound 91] | – | 16 | – | 128
47 | VDKPPYLPRPRPPRPIYNR-NH2 [compound 60] | 64 | 8 | – | –
